Laboratory results: patent US20240252477A1, “NLRP3 INFLAMMASOME-INHIBITING COMPOUNDS AND THE USE THEREOF” (UNIVERSITA' DEGLI STUDI DI TORINO (60%), priority 2021, published 2024)

Columns and labels:
NLRP3 inflammasome = biological target: T1, NLRP3 inflammasome (Homo sapiens, UniProt Q96P20); test: NLRP3-dependent pyroptosis (LDH release) in PMA-differentiated THP-1 cells stimulated with LPS/ATP; type: cell-based; settings: compounds at 10 μM for 1 hour; differentiated THP-1, LPS 10 μg/mL 4 hours, ATP 1.5 hours; read-out: Pyroptosis inhibition (% ± SEM)
T1 construct: The THP-1 cells were differentiated into macrophages by treating them with PMA 50 nM; endogenous in cells; host or cells: THP-1 (human monocytic leukaemia line), PMA-differentiated, primed with LPS, triggered with ATP
Method: THP-1 cells, a monocytic human cell line derived from the peripheral blood of a patient suffering from acute monocytic leukaemia (www.atcc.org), were cultured in RPMI 1640 medium (Aurogene, Rome, Italy), with the addition of foetal bovine serum (10%, Aurogene), L-glutamine (2 mM, Aurogene), penicillin (100 IU/ml, Aurogene) and streptomycin ([…], Aurogene). The medium was changed every 2-3 days, and the cells were maintained in an incubator at 37° C., with 5% CO2, and with suitable humidity.
The cells were seeded in 48-well plates (90.000 cells/well), and differentiated with phorbol 12-myristate 13-acetate (PMA—50 nM, 24 hours; Sigma-Aldrich). On the next day, the differentiated THP-1s were washed twice with the balanced saline solution phosphate-buffered saline (PBS), and stimulated with lipopolysaccharide (LPS) (10 μg/mL, 4 hours; Sigma-Aldrich), prepared in serum-free medium. After 4 hours the cells were incubated with the compounds at the concentration of 10 μM for 1 hour, operating in triplicate; INF176 and INF177 were tested at three different concentrations: […]. Finally, the cells were stimulated with ATP 5 mm for 1.5 hours. The supernatants were then harvested for the subsequent analyses.
LDH release into the supernatant obtained as described above was quantified using the CytoTox 96 nonradioactive cytotoxicity assay (Promega Corporation, Madison, […], USA), a colorimetric assay wherein LDH activity is measured with an NADH-dependent enzymatic reaction:
Briefly, an equal volume of CytoTox Reagent was added to the supernatant and, after 30 minutes' incubation, the reaction was stopped by adding the stop solution. The formazan concentration was determined by measuring absorbance, using a microplate reader (Victor X4—EnSight, PerkinElmer, Waltham, MA, USA), at λ=490 nm. Cell death was expressed according to the manufacturer's instructions.
The compound INF176 was tested to measure its ability to inhibit NLRP3-dependent cell pyroptosis in human macrophages, using the experimental protocol previously published [Cocco et al. 2017].
The THP-1 cells were differentiated into macrophages by treating them with PMA 50 nM (24 hours) and then with LPS (10 μg/mL) for 4 hours. The cells were treated with the compound (10 μM) for 1 hour. Pyroptosis was induced by treatment with ATP 5 mm. After 90 minutes, cell death was evaluated by measuring the LDH level in the cell supernatant using the CytoTox 96 Non-Radioactive Cytotoxicity Assay (Promega Corporation, Madison, […], USA).

Cytotoxicity (MTT assay) = type: cell-based, human; settings: human; THP-1 cells, 72 hours' incubation
Method: The THP-1 cells were seeded in a 96-well plate (15.000 cells/well) and incubated with the test compounds at four different concentrations (0.1, 1, 10 and 100 μM), operating in triplicate. The cells were placed in an incubator at 37° C., with 5% CO2, and cell viability was measured after 72 hours' incubation, using the MTT assay. This is a colorimetric assay, based on conversion of water-soluble 3-(4,5-dimethylthiazol-2-yl)-2,5-diphenyltetrazolium bromide (MTT; Sigma-Aldrich) to a violet-coloured insoluble formazan, by the mitochondrial dehydrogenase present in the live cells. The formazan is solubilised in acidified isopropanol, and the concentration is determined by measuring absorbance with a microplate reader (Victor X4—Ensight, PerkinElmer) at λ=570 nm. Viability was expressed as a percentage of the viability of the control cells, which were either untreated or treated with the carrier. The IC50 was calculated with the Graph Pad Prism software.

T1 sequence (Q96P20 whole entry): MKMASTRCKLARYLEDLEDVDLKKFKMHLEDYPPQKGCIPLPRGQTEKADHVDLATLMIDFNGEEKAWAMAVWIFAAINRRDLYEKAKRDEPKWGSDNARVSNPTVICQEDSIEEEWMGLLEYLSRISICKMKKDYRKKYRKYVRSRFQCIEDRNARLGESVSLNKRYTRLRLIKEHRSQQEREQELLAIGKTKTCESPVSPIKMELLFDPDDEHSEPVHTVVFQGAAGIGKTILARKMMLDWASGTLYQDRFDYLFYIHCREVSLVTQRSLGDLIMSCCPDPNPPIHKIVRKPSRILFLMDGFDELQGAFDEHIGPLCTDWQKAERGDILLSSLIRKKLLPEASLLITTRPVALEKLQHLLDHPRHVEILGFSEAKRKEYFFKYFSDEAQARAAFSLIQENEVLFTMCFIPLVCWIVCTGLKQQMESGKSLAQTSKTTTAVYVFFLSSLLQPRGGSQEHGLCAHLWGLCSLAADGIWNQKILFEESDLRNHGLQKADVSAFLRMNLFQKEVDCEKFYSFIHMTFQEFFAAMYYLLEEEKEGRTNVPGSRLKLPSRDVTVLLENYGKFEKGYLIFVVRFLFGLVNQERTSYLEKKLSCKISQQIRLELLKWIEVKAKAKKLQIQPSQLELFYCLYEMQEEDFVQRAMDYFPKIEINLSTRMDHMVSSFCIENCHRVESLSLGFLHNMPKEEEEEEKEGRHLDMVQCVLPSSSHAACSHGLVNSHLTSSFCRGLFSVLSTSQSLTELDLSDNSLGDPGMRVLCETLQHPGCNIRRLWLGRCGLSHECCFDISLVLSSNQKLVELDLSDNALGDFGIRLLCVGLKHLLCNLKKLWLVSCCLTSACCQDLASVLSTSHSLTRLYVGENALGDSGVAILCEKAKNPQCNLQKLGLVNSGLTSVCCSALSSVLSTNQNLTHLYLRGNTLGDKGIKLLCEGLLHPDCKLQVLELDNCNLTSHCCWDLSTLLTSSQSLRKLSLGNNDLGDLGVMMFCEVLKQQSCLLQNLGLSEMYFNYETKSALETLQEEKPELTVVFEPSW

Compound	inhibition at 10 µM (NLRP3 inflammasome) [%]	IC50 at 72 h (Cytotoxicity (MTT assay)) [µM]
CCOC(=O)/C(=C/c1ccccc1Cl)CSC1CCCCC1 [INF56, (Z)-ethyl 3-(2-chlorophenyl)-2-((cyclohexylthio)methyl)acrylate]	41.6 ± 3.9	> 100
CCOC(=O)C1CCCN(C(=O)/C(=C/c2ccccc2[N+](=O)[O-])CSc2ccccc2)C1 (centres unmarked) [INF231, ethyl (Z)-1-(3-(2-nitrophenyl)-2-((phenylthio)methyl)acryloyl)piperidine-3-carboxylate]	32.6 ± 19.8	
CCOC(=O)/C(=C/c1ccccc1Cl)CSc1ccccc1 [INF42, ethyl (Z)-3-(2-chlorophenyl)-2-((phenylthio)methyl)acrylate]	69.1 ± 2.2	> 100
CCOC(=O)C1CCCN(C(=O)/C(=C/c2cccc(Cl)c2)CSc2ccccc2)C1 (centres unmarked) [INF230, ethyl (Z)-1-(3-(3-chlorophenyl)-2-((phenylthio)methyl)acryloyl)piperidine-3-carboxylate]	39 ± 15.4	
CCOC(=O)C(Cc1ccccc1Cl)C[S+]([O-])c1ccccc1 (centres unmarked) [INF48, ethyl 2-(2-chlorobenzyl)-3-(phenylsulphinyl)propanoate]	33.6 ± 1.2	> 35.1
CCOC(=O)C1CCN(C(=O)/C(=C/c2ccccc2Cl)CSC2CCCCC2)CC1 [INF188, ethyl (Z)-1-(3-(2-chlorophenyl)-2-((cyclohexylthio)methyl)acryloyl)piperidine-4-carboxylate]	< 10	58.6 ± 5.3
CCOC(=O)/C(=C/c1ccccc1Cl)CS(=O)(=O)c1ccccc1 [INF51, ethyl (Z)-3-(2-chlorophenyl)-2-((phenylsulphonyl)methyl)acrylate]	38.9 ± 4.5	20.1 ± 14.3
CCOC(=O)C1CCCN(C(=O)C(CSC2CCCCC2)Cc2ccccc2Cl)C1 (centres unmarked) [INF192, ethyl 1-(2-(2-chlorobenzyl)-3-(cyclohexylthio)propanoyl)piperidine-3-carboxylate]	62.2 ± 9.78	59.8 ± 0.7
CCOC(=O)C(CSC1CCCCC1)Cc1ccccc1Cl (centres unmarked) [INF110, ethyl 2-(2-chlorobenzyl)-3-(cyclohexylthio)propanoate]	< 10	66 ± 1.4
CCCNC(=O)/C(=C/c1ccccc1Cl)CSc1ccccc1 [INF82, (Z)-3-(2-chlorophenyl)-2-((phenylthio)methyl)-N-propylacrylamide]	19 ± 4.1	63.3 ± 1.3
CCOC(=O)/C(=C/c1ccccc1Cl)COc1ccccc1 [INF57, (E)-ethyl 3-(2-chlorophenyl)-2-(phenoxymethyl)acrylate]	34.5 ± 0.3	> 100
CCOC(=O)[C@@H](CS(=O)(=O)c1ccccc1)[C@H](O)c1ccccc1Cl (stereo in doubt) [INF45, ethyl 3-(2-chlorophenyl)-3-hydroxy-2-((phenylsulphonyl)methyl)propanoate]	45.8 ± 6.7	> 100
CCOC(=O)[C@H]1CCCN(C(=O)/C(=C/c2ccccc2Cl)CSc2ccccc2)C1 [INF203, ethyl (S,Z)-1-(3-(2-chlorophenyl)-2-((phenylthio)methyl)acryloyl)piperidine-3-carboxylate]	14.4 ± 4.3	
CCOC(=O)C(CSc1ccccc1)Cc1ccccc1Cl (centres unmarked) [INF43, ethyl 2-(2-chlorobenzyl)-3-(phenylthio)propanoate]	51 ± 5.6	> 100
CCOC(=O)C(Cc1ccccc1Cl)CS(=O)(=O)C1CCCCC1 (centres unmarked) [INF111, ethyl 2-(2-chlorobenzyl)-3-(cyclohexylsulphonyl)propanoate]	< 10	98.1 ± 4.8
CCOC(=O)[C@H](CN1CCCC1)[C@H](O)c1ccccc1Cl (stereo in doubt) [INF37 anti]	21.1 ± 2.9	

Compound	inhibition at 10 µM (NLRP3 inflammasome) [%]	IC50 at 72 h (Cytotoxicity (MTT assay)) [µM]
CCOC(=O)C(Cc1ccccc1Cl)CN1CCCC1 (centres unmarked) [INF61, ethyl 2-(2-chlorobenzyl)-3-(pyrrolidine-1-yl)propanoate]	41.7 ± 5.2	> 100
CCOC(=O)[C@H]1CCCN(C(=O)[C@@H](CSc2ccccc2)Cc2ccccc2Cl)C1 (racemic) [INF184+INF185, ethyl 1-(2-(2-chlorobenzyl)-3-(phenylthio)propanoyl)piperidine-3-carboxylate]		75.4 ± 2.6
CCOC(=O)[C@H](CSc1ccccc1)[C@H](O)c1ccccc1Cl (mixture of isomers) [INF38a, Ethyl(2S,3S)-3-(2-chlorophenyl)-3-hydroxy-2-(phenylsulphanylmethyl)-propanoate and ethyl(2S,3R)-3-(2-chlorophenyl)-3-hydroxy-2-(phenylsulphanylmethyl)propanoate]	26.9 ± 4.9	> 100
NS(=O)(=O)c1ccc(CCNC(=O)/C(=C/c2ccccc2Cl)CSc2ccccc2)cc1 [INF220, (Z)-3-(2-chlorophenyl)-2-((phenylthio)methyl)-N-(4-sulphamoylphenethyl)acrylamide]	73.9 ± 13.9	> 62.5
CCOC(=O)C1CCN(C(=O)C(CSc2ccccc2)Cc2ccccc2Cl)CC1 (centres unmarked) [INF186, ethyl 1-(2-(2-chlorobenzyl)-3-(phenylthio)propanoyl)piperidine-4-carboxylate]	< 10	94.6 ± 4
CCOC(=O)C(Cc1ccccc1Cl)CS(=O)(=O)c1ccccc1 (centres unmarked) [INF49, ethyl 2-(2-chlorobenzyl)-3-(phenylsulphonyl)-propanoate]	50.6 ± 5.8	> 100
O=C(O)C1CCN(C(=O)/C(=C/c2ccccc2Cl)CSc2ccccc2)CC1 [INF187, (Z)-1-(3-(2-chlorophenyl)-2-((phenylthio)methyl)acryloyl)piperidine-4-carboxylic acid]	< 10	> 100
CCOC(=O)[C@@H](CSc1ccccc1)[C@H](O)c1ccccc1Cl (mixture of isomers) [INF38s, Ethyl(2S,3S)-3-(2-chlorophenyl)-3-hydroxy-2-(phenylsulphanylmethyl)-propanoate and ethyl(2R,3R)-3-(2-chlorophenyl)-3-hydroxy-2-(phenylsulphanylmethyl)propanoate]	23.5 ± 4.2	> 100
CCOC(=O)[C@@H]1CCCN(C(=O)[C@@H](CSc2ccccc2)Cc2ccccc2Cl)C1 (racemic) [INF185, ethyl 1-(2-(2-chlorobenzyl)-3-(phenylthio)propanoyl)piperidine-3-carboxylate]	< 10	
CCOC(=O)[C@@H]1CCCN(C(=O)/C(=C/c2ccccc2Cl)CSc2ccccc2)C1 [INF202, ethyl (R,Z)-1-(3-(2-chlorophenyl)-2-((phenylthio)methyl)acryloyl)piperidine-3-carboxylic acid]	40.9 ± 1.2	
CCOC(=O)/C(=C/c1ccccc1Cl)C[S+]([O-])c1ccccc1 (centres unmarked) [INF50, (Z)-ethyl 3-(2-chlorophenyl)-2-((phenylsulphinyl)methyl)acrylate]	41.1 ± 2.5	9.7 ± 0.2
CCOC(=O)[C@@H](CN1CCCC1)[C@H](O)c1ccccc1Cl (racemic) [INF37 syn]	32.2 ± 5.7	
CCOC(=O)C1CCN(C(=O)/C(=C/c2ccccc2Cl)CSc2ccccc2)CC1 [INF180, ethyl (Z)-1-(3-(2-chlorophenyl)-2-((phenylthio)methyl)acryloyl)piperidine-4-carboxylate]	13.8 ± 7.1	> 100
CCOC(=O)[C@@H](C[S+]([O-])c1ccccc1)[C@H](O)c1ccccc1Cl (mixture of isomers) [INF44, ethyl 3-(2-chlorophenyl)-3-hydroxy-2-((phenylsulphinyl)methyl)propanoate]	< 10	> 100
CCOC(=O)C(CN1CCCC1)C(O)c1ccccc1Cl (stereo not drawn) [INF37 (syn), ethyl 3-(2-chlorophenyl)-3-hydroxy-2-(pyrrolidin-1-ylmethyl)propanoate]		> 100
